In patent US8815918B2, “Imidazo [2, 1-B] [1, 3, 4] thiadiazole derivatives” (Centro Nacional de Investigaciones Oncologicas (CNIO), priority 2009, dated 2014) one finds IC50 and inhibition data, which are given here for 28 compounds.

In the experiment the target is PI3K (p110α/p85α) (Homo sapiens (Human), UniProt P42336). As to the kind of experiment: PI3K Activity Assay (ADP Hunter Plus). Format: biochemical. As to conditions: for inhibition at 10 µM: 10 μM compound concentration, read-out: Inhibition (%) of PI3Kα activity, Inh (%) at 10 μM. The protocol: The kinase activity was measured by using the commercial ADP Hunter™ Plus assay available from DiscoveRx (#33-016), which is a homogeneous assay to measure the accumulation of ADP, a universal product of kinase activity. The enzyme, PI3K (p110α/p85α was purchased from Carna Biosciences (#07CBS-0402A). The assay was done following the manufacturer recommendations with slight modifications: Mainly the kinase buffer was replace by 50 mM HEPES, pH 7.5, 3 mM MgCl2, 100 mM NaCl, 1 mM EGTA, 0.04% CHAPS, 2 mM TCEP and 0.01 mg/ml BGG. The PI3K was assayed in a titration experiment to determine the optimal protein concentration for the inhibition assay. To calculate the IC50 of the ETP-compounds, serial 1:5 dilutions of the compounds were added to the enzyme at a fixed concentration (2.5 μg/mL. The enzyme was preincubated with the inhibitor and 30 μM PIP2 substrate (P9763, Sigma) for 5 min and then ATP was added to a final 50 μM concentration. Reaction was carried out for 1 hour at 25° C. Reagent A and B were sequentially added to the wells and plates were incubated for 30 min at 37° C. Fluorescence counts were read in a Victor instrument (Perkin Elmer) with the recommended settings (544 and 580 nm as excitation and emission wavelengths, respectively). Values were normalized against the control activity included for each enzyme (i.e., 100% PI3 kinase activity, without compound). These values were plot against the inhibitor concentration and were fit to a sigmoid dose-response curve by using the Graphad software.
Sequence of PI3K (p110α/p85α) (P42336 whole entry): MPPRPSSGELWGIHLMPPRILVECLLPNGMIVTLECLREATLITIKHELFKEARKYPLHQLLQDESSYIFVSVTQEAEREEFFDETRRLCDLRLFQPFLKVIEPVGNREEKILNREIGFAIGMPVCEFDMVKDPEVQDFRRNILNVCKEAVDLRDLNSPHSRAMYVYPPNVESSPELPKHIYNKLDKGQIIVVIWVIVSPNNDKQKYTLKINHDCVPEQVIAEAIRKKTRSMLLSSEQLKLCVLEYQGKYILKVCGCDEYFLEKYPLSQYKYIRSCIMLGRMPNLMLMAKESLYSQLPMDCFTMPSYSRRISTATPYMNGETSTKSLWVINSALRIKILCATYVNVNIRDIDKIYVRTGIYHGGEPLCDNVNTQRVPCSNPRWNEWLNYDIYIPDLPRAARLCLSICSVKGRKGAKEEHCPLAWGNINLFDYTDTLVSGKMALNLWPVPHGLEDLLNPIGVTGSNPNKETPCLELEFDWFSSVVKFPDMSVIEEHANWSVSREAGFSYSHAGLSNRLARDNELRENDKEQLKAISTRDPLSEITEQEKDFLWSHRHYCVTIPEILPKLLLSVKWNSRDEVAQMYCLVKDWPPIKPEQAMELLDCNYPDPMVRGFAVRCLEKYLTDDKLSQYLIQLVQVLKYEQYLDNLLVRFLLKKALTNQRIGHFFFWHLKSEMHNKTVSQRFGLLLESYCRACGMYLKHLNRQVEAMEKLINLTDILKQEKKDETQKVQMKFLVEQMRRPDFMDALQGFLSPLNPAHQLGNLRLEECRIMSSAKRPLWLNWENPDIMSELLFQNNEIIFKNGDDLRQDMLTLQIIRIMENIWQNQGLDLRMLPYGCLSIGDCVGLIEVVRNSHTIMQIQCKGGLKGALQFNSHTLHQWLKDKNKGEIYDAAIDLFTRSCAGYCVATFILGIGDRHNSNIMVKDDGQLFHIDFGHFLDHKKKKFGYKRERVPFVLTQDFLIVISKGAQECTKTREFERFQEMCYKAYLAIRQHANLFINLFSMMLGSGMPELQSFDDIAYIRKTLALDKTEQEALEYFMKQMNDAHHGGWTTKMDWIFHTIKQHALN
Sequence of PI3K (p110α/p85α) (P27986 whole entry partner): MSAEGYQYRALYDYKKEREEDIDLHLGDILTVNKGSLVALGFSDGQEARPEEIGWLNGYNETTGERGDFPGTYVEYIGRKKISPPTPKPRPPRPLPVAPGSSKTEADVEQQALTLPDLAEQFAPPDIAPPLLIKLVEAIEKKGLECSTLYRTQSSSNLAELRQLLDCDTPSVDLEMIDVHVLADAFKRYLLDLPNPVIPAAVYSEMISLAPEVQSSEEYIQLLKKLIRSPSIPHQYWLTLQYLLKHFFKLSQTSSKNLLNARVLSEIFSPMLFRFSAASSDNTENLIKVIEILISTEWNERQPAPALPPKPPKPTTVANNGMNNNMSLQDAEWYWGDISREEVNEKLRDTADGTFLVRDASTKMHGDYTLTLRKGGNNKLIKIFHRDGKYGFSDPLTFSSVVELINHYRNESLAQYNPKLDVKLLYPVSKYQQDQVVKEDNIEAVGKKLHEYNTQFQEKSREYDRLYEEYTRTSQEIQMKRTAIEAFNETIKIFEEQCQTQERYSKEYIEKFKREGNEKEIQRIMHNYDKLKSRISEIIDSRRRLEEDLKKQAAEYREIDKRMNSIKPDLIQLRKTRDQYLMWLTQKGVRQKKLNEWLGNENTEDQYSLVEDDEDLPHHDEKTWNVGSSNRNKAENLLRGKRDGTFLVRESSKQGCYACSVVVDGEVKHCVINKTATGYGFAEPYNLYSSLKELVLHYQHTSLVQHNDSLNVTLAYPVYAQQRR

Setting [1] is: read-out: Biological activity in PI3Kα, semi-quantitative.

For orientation: inhibition means the share of the control response that was lost under treatment.

Read-outs that look alike come from different tables or passages of the source. Bounds are passed on as bounds.

Take `CS(=O)(=O)c1cccc(-c2nn3c(-c4cnc(N)c(C(F)(F)F)c4)cnc3s2)c1` [Example 41, 5-[2-(3-Methanesulfonyl-phenyl)-imidazo[2,1-b][1,3,4]thiadiazol-5-yl]-3-trifluoromethyl-pyridin-2-ylamine]: the IC50 under setting [1] was less than 0.1 µM and the IC50 (read-out: IC50 [μM] PI3Kα) is 0.05 µM.
For `COc1cccc(-c2nn3c(-c4cnc(N)c(C(F)(F)F)c4)cnc3s2)c1` [Example 28, 5-[2-(3-Methoxy-phenyl)-imidazo[2,1-b][1,3,4]thiadiazol-5-yl]-3-trifluoromethyl-pyridin-2-ylamine], the IC50 under setting [1] is 0.1 to 1 µM.
Take `COC(=O)c1ccc(-c2cnc3sc(-c4cnc(N)c(C(F)(F)F)c4)nn23)cc1OC` [Example 51, 4-[2-(6-Amino-5-trifluoromethyl-pyridin-3-yl)-imidazo[2,1-b][1,3,4]thiadiazol-5-yl]-2-methoxy-benzoic acid methyl ester]: the IC50 by setting is: under setting [1], less than 0.1 µM; (read-out: IC50 [μM] PI3Kα) 0.018 µM.
As to `COc1cc(-c2nn3c(-c4cnc(N)c(C(F)(F)F)c4)c(C)nc3s2)ccc1OCC(=O)N(C)C` [Example 10, 2-(4-(5-(6-amino-5-(trifluoromethyl)pyridin-3-yl)-6-methylimidazo[2,1-b][1,3,4]thiadiazol-2-yl)-2-methoxyphenoxy)-N,N-dimethylacetamide], the IC50 under setting [1] was 1 to 50 µM.
On the same count and under the same terms, next, `CN(C)c1cccc(-c2nn3c(-c4cnc(N)c(C(F)(F)F)c4)cnc3s2)c1` [Example 42, 5-[2-(3-Dimethylamino-phenyl)-imidazo[2,1-b][1,3,4]thiadiazol-5-yl]-3-trifluoromethyl-pyridin-2-ylamine]: 0.1 to 1 µM.
In the case of `COc1ccc(-c2nn3c(-c4cnc(N)nc4)c(C)nc3s2)cc1OC` [Example 7, 5-[2-(3,4-Dimethoxy-phenyl)-6-methyl-imidazo[2,1-b][1,3,4]thiadiazol-5-yl]-pyrimidin-2-ylamine], the inhibition at 10 µM was found to be 100%. Moreover, the IC50 under setting [1] was in the range of 0.1 to 1 µM.
For `COc1cc(-c2nn3c(-c4cnc(N)c(C(F)(F)F)c4)c(C)nc3s2)ccc1OCCNC(=O)OC(C)(C)C` [Example 9, tert-Butyl 2-(4-(5-(6-amino-5-(trifluoromethyl)pyridin-3-yl)-6-methylimidazo-[2,1-b][1,3,4]thiadiazol-2-yl)-2-methoxyphenoxy)ethylcarbamate], the inhibition at 10 µM worked out at 77%. Further, under setting [1], the IC50 is 1 to 50 µM.
As to `Cc1ccc(-c2nn3c(-c4cnc(N)c(C(F)(F)F)c4)cnc3s2)cn1` [Example 43, 5-[2-(6-Methyl-pyridin-3-yl)-imidazo[2,1-b][1,3,4]thiadiazol-5-yl]-3-trifluoromethyl-pyridin-2-ylamine], the IC50 under setting [1] was less than 0.1 µM and the IC50 (read-out: IC50 [μM] PI3Kα) was 0.062 µM.
With `COc1ccc(-c2nn3c(-c4cnc(N5CCNCC5)nc4)cnc3s2)cc1OC` [Example 20, 2-(3,4-Dimethoxy-phenyl)-5-(2-piperazin-1-yl-pyrimidin-5-yl)-imidazo[2,1-b][1,3,4]thiadiazole], the IC50 under setting [1] lay within 0.1 to 1 µM.
Consider `Cc1ccncc1-c1nn2c(-c3cnc(N)c(C(F)(F)F)c3)cnc2s1` [Example 37, 5-[2-(4-Methyl-pyridin-3-yl)-imidazo[2,1-b][1,3,4]thiadiazol-5-yl]-3-trifluoromethyl-pyridin-2-ylamine], for which the IC50 under setting [1] is less than 0.1 µM.
`COc1cncc(-c2cnc3sc(-c4ccc(OC)c(OC)c4)nn23)c1` [Example 27, 2-(3,4-dimethoxyphenyl)-5-(5-methoxypyridin-3-yl)imidazo[2,1-b][1,3,4]thiadiazole]: the inhibition at 10 µM was 99%. Besides, under setting [1], the IC50 is less than 0.1 µM.
For the compound `COc1ccc(-c2nn3c(-c4cnc(N5CCN(C)CC5)c(C(F)(F)F)c4)cnc3s2)cc1OC` [Example 23, 2-(3,4-Dimethoxy-phenyl)-5-[6-(4-methyl-piperazin-1-yl)-5-trifluoromethyl-pyridin-3-yl]-imidazo[2,1-b][1,3,4]thiadiazole], the IC50 reads like this: under setting [1], 0.1 to 1 µM; (read-out: IC50 [μM] PI3Kα) 0.447 µM.
In the same order, the values of `COc1ccc(-c2nn3c(-c4cnc(N)c(C#N)c4)cnc3s2)cc1OC` [Example 18, 2-Amino-5-[2-(3,4-dimethoxy-phenyl)-imidazo[2,1-b][1,3,4]thiadiazol-5-yl]-nicotinonitrile] are less than 0.1 µM and 0.033 µM.
For `Nc1ncc(-c2nn3c(-c4ccc(F)nc4)cnc3s2)cc1C(F)(F)F` [Example 50, 5-[5-(6-Fluoro-pyridin-3-yl)-imidazo[2,1-b][1,3,4]thiadiazol-2-yl]-3-trifluoromethyl-pyridin-2-ylamine], the inhibition at 10 µM is 97%. Moreover, the IC50 under setting [1] fell in the range of 0.1 to 1 µM.
For the compound `N#Cc1cccc(-c2nn3c(-c4cnc(N)c(C(F)(F)F)c4)cnc3s2)c1` [Example 29, 3-[5-(6-Amino-5-trifluoromethyl-pyridin-3-yl)-imidazo[2,1-b][1,3,4]thiadiazol-2-yl]-benzonitrile], under setting [1], the IC50 was less than 0.1 µM.
Consider `NC(=O)c1cccc(-c2nn3c(-c4cnc(N)c(C(F)(F)F)c4)cnc3s2)c1` [Example 35, 3-[5-(6-Amino-5-trifluoromethyl-pyridin-3-yl)-imidazo[2,1-b][1,3,4]thiadiazol-2-yl]-benzamide], for which the IC50 under setting [1] was less than 0.1 µM.
Same read-out and setting: then `COc1ccc(-c2nn3c(-c4cnc(N5CCNCC5)c(C(F)(F)F)c4)cnc3s2)cc1OC` [Example 22, 2-(3,4-Dimethoxy-phenyl)-5-(6-piperazin-1-yl-5-trifluoromethyl-pyridin-3-yl)-imidazo[2,1-b][1,3,4]thiadiazole], with 0.1 to 1 µM.
As to `CC(=O)Nc1cccc(-c2nn3c(-c4cnc(N)c(C(F)(F)F)c4)cnc3s2)c1` [Example 46, N-{3-[5-(6-Amino-5-trifluoromethyl-pyridin-3-yl)-imidazo[2,1-b][1,3,4]thiadiazol-2-yl]-phenyl}-acetamide], the IC50 under setting [1] is less than 0.1 µM.
On to `Nc1ncc(-c2cnc3sc(-c4ccc5[nH]ccc5c4)nn23)cc1C(F)(F)F` [Example 40, 5-[2-(1H-Indol-5-yl)-imidazo[2,1-b][1,3,4]thiadiazol-5-yl]-3-trifluoromethyl-pyridin-2-ylamine], for which the IC50 reads like this: under setting [1], 0.1 to 1 µM; (read-out: IC50 [μM] PI3Kα) 0.676 µM.
Consider `COc1ccc(-c2nn3c(-c4cnc(N5CCN(C)CC5)nc4)cnc3s2)cc1OC` [Example 21, 2-(3,4-Dimethoxy-phenyl)-5-[2-(4-methyl-piperazin-1-yl)-pyrimidin-5-yl]-imidazo[2,1-b][1,3,4]thiadiazole], for which the IC50 under setting [1] lay in the range of 0.1 to 1 µM.
Take `COc1ccc(-c2nn3c(-c4cnc([S+](C)[O-])nc4)cnc3s2)cc1OC` (stereo not shown) [Example 25, 2-(3,4-Dimethoxy-phenyl)-5-(2-mthanesulfinyl-pyrimidin-5-yl) -imidazo[2,1-b][1,3,4]thiadiazole]: under setting [1], the IC50 is 0.1 to 1 µM.
As for `Nc1ncc(-c2cnc3sc(-c4cccnc4)nn23)cc1C(F)(F)F` [Example 32, 5-(2-Pyridin-3-yl-imidazo[2,1-b][1,3,4]thiadiazol-5-yl)-3-trifluoromethyl-pyridin-2-ylamine], the IC50 under setting [1] was less than 0.1 µM.
On to `COc1cc(-c2nn3c(-c4cnc(N)nc4)cnc3s2)ccc1OC1CCN(C(=O)OC(C)(C)C)CC1` [Example 14, 4-{4-[5-(2-Amino-pyrimidin-5-yl)-imidazo[2,1-b][1,3,4]thiadiazol-2-yl]-2-methoxy-phenoxy}-piperidine-1-carboxylic acid tert-butyl ester], for which the IC50 under setting [1] was in the range of 1 to 50 µM.
With `COc1cc(-c2nn3c(-c4cnc(N)nc4)cnc3s2)ccc1OC1CCNCC1` [Example 15, 5-{2-[3-Methoxy-4-(piperidin-4-yloxy)-phenyl]-imidazo[2,1-b][1,3,4]thiadiazol-5-yl}-pyrimidin-2-ylamine], the IC50 by setting is: under setting [1], 0.1 to 1 µM; (read-out: IC50 [μM] PI3Kα) 0.115 µM.
In the same order, the values of `COc1cncc(-c2nn3c(-c4cnc(N)c(C(F)(F)F)c4)cnc3s2)c1` [Example 47, 5-[2-(5-Methoxy-pyridin-3-yl)-imidazo[2,1-b][1,3,4]thiadiazol-5-yl]-3-trifluoromethyl-pyridin-2-ylamine] are less than 0.1 µM and 0.021 µM.
In the case of `CS(=O)(=O)NCc1cccc(-c2nn3c(-c4cnc(N)c(C(F)(F)F)c4)cnc3s2)c1` [Example 34, N-{3-[5-(6-Amino-5-trifluoromethyl-pyridin-3-yl)-imidazo[2,1-b][1,3,4]thiadiazol-2-yl]-benzyl}-methanesulfonamide], the IC50 under setting [1] is less than 0.1 µM.
For the compound `COc1ccc(-c2nn3c(-c4ccc(O)nc4)c(C)nc3s2)cc1OC` [Example 8, 5-[2-(3,4-Dimethoxy-phenyl)-6-methyl-imidazo[2,1-b][1,3,4]thiadiazol-5-yl]-pyridin-2-ol], under setting [1], the IC50 fell in the range of 1 to 50 µM.
As for `COc1ccc(-c2cnc3sc(-c4ccc(OC5CCNCC5)c(OC)c4)nn23)cn1` [Example 13, 2-[3-Methoxy-4-(piperidin-4-yloxy)-phenyl]-5-(6-methoxy-pyridin-3-yl)-imidazo[2,1-b][1,3,4]thiadiazole], the IC50 under setting [1] lay within 1 to 50 µM.
